In the supplement of paper PMC10307832:

How the values were obtained:
Experiment in all cases: relative viability (nuclei count vs DMSO), 5 days (fraction); higher = more cells survive
[1] = compound: Cc1ccc(-n2nc(C(C)(C)C)cc2NC(=O)Nc2ccc(OCCN3CCOCC3)c3ccccc23)cc1 [Doramapimod] + NC(=O)Nc1cc(-c2cccc(F)c2)sc1C(=O)N[C@H]1CCCNC1 [AZD7762] (partner 0.2 µM)
In short: (§1)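 Relative viability was taken as the ratio of nuclei in treated wells to nuclei in vehicle wells. Lung cancer cell lines in 1536-well plates received compounds by pin tool one day after seeding, either one drug alone or a fixed anchor-drug dose plus five library-drug doses (not always all listed) in √10 steps. Nuclei were counted on 4× images after 5 days of treatment, and values are medians of duplicate plates.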

[2] = compound: Cn1c(Nc2ccc(C(F)(F)F)cc2)nc2cc(Oc3ccnc(-c4ncc(C(F)(F)F)[nH]4)c3)ccc21 [RAF265] + COc1cccc2cc(-c3nc([C@H]4CC[C@H](C(=O)O)CC4)n4ncnc(N)c34)[nH]c12 [OSI-027] (partner 0.5 µM)
In short: as §1

[3] = compound: C1=CC=C2C(=C1)C=CC(=C2SSC3=C(C=CC4=CC=CC=C43)O)O [IPA-3] + COc1cccc2cc(-c3nc([C@H]4CC[C@H](C(=O)O)CC4)n4ncnc(N)c34)[nH]c12 [OSI-027] (partner 0.5 µM)
In short: as §1

[4] = compound: Cn1c(Nc2ccc(C(F)(F)F)cc2)nc2cc(Oc3ccnc(-c4ncc(C(F)(F)F)[nH]4)c3)ccc21 [RAF265] + N=C(N)NC(=N)NCCc1ccccc1 [Phenformin] (partner 250 µM)
In short: as §1

| Cell Line | relative viability ([1]; first compound 0.02 µM) | relative viability ([1]; first compound 0.06325 µM) | relative viability ([1]; first compound 0.2 µM) | relative viability ([1]; first compound 0.6325 µM) | relative viability ([1]; first compound 2 µM) | relative viability ([2]; first compound 0.01 µM) | relative viability ([2]; first compound 0.03162 µM) | relative viability ([2]; first compound 0.1 µM) | relative viability ([2]; first compound 1 µM) | relative viability ([3]; first compound 0.2 µM) | relative viability ([3]; first compound 0.6325 µM) | relative viability ([3]; first compound 2 µM) | relative viability ([3]; first compound 6.325 µM) | relative viability ([3]; first compound 20 µM) | relative viability ([4]; first compound 0.01 µM) | relative viability ([4]; first compound 0.03162 µM) | relative viability ([4]; first compound 0.1 µM) | relative viability ([4]; first compound 1 µM) | relative viability ([2]; first compound 0.3162 µM) | relative viability ([4]; first compound 0.3162 µM) |
| --- | --- | --- | --- | --- | --- | --- | --- | --- | --- | --- | --- | --- | --- | --- | --- | --- | --- | --- | --- | --- |
| NCI-H3122 | 1.11 | 1.09 | 1.05 | 1 | 1.12 | 0.971 | 1.1 | 0.948 | 0.42 | 1.13 | 0.951 | 0.948 | 1.11 | 0.896 | 0.386 | 0.385 | 0.386 | 0.348 | – | – |
| NCI-H2347 | 0.733 | 0.831 | 0.711 | 0.757 | 0.781 | 0.418 | 0.341 | 0.44 | 0.278 | 0.379 | 0.379 | 0.388 | 0.351 | 0.398 | 0.338 | 0.426 | 0.394 | 0.166 | 0.35 | 0.218 |
| HCC-44 | 1.06 | 1.02 | 1.04 | 1.01 | 1.07 | 0.735 | 0.479 | 0.636 | 0.477 | 0.516 | 0.704 | 0.489 | 0.482 | 0.484 | 0.183 | 0.241 | 0.209 | 0.19 | 0.449 | 0.199 |
| HCC-78 | 0.518 | 0.642 | 0.705 | 0.756 | 0.75 | 0.35 | 0.424 | 0.396 | 0.341 | 0.419 | 0.407 | 0.641 | 0.382 | 0.353 | 0.87 | 0.847 | 0.832 | 0.652 | 0.346 | 0.647 |
| COR-L23 | – | – | – | – | – | 0.843 | 0.723 | 0.501 | 0.168 | 1.05 | 0.771 | 0.795 | 0.696 | 0.552 | 0.507 | 0.395 | 0.344 | 0.258 | 0.278 | 0.315 |
| NCI-H1993 | 0.751 | 0.675 | 0.608 | 0.781 | 0.557 | 0.539 | 0.583 | 0.552 | 0.543 | 0.555 | 0.556 | 0.539 | 0.556 | 0.504 | 0.455 | 0.586 | 0.502 | 0.479 | 0.579 | 0.603 |
| NCI-H2405 | 0.821 | 0.746 | 0.758 | 0.895 | 0.686 | 0.601 | 0.626 | 0.621 | 0.366 | 0.651 | 0.644 | 0.669 | 0.691 | 0.666 | 0.424 | 0.372 | 0.384 | 0.261 | 0.611 | 0.344 |
| NCI-H2126 | 0.865 | 1.02 | 0.942 | 1.02 | 1.04 | 0.77 | 0.724 | 0.718 | 0.437 | 0.727 | 0.748 | 0.666 | 0.688 | 0.75 | 0.508 | 0.551 | 0.558 | 0.459 | 0.582 | 0.512 |
| NCI-H1944 | 0.468 | 0.62 | 0.341 | 0.647 | 0.312 | 0.516 | 0.5 | 0.357 | 0.237 | 0.454 | 0.394 | 0.396 | 0.479 | 0.444 | 0.192 | 0.202 | 0.184 | 0.143 | 0.317 | 0.168 |
| NCI-H1648 | 0.653 | 0.695 | 0.63 | 0.548 | 0.59 | 0.266 | 0.298 | 0.277 | 0.246 | 0.258 | 0.276 | 0.281 | 0.278 | 0.245 | – | – | – | – | 0.3 | – |
| NCI-H358 | 0.486 | 0.522 | 0.438 | 0.363 | 0.38 | 0.864 | 0.617 | 0.305 | 0.18 | 0.895 | 0.733 | 0.746 | 0.69 | 0.758 | 0.419 | 0.308 | 0.252 | 0.149 | 0.194 | 0.144 |
| NCI-H2023 | – | – | – | – | – | 0.387 | 0.358 | 0.33 | 0.318 | 0.507 | 0.352 | 0.415 | 0.54 | 0.421 | 0.421 | 0.407 | 0.391 | 0.322 | 0.252 | 0.353 |
| NCI-H1563 | – | – | – | – | – | 0.769 | 0.772 | 0.738 | 0.739 | 0.841 | 0.794 | 0.74 | 0.828 | 0.716 | 0.676 | 0.674 | 0.66 | 0.623 | 0.706 | 0.64 |
| SK-MES-1 | – | – | – | – | – | 0.544 | 0.355 | 0.186 | 0.187 | 0.722 | 0.581 | 0.635 | 0.521 | 0.423 | 0.62 | 0.404 | 0.341 | 0.2 | 0.223 | 0.263 |
| NCI-H1650 | – | – | – | – | – | 0.631 | 0.598 | 0.8 | 0.649 | 0.763 | 0.515 | 0.676 | 0.724 | 0.727 | 0.55 | 0.438 | 0.49 | 0.361 | 0.456 | 0.333 |
| NCI-H1703 | – | 0.118 | 0.108 | 0.0991 | 0.113 | – | – | – | – | – | – | – | – | – | – | – | – | – | – | – |
| NCI-H661 | – | – | – | – | – | 0.742 | 0.394 | 0.44 | 0.291 | 0.894 | 0.726 | 0.716 | 0.356 | 0.673 | 0.258 | 0.27 | 0.275 | 0.261 | 0.333 | 0.281 |
| NCI-H2228 | – | – | – | – | – | 0.499 | 0.476 | 0.344 | 0.121 | 0.991 | 0.476 | 0.62 | 0.559 | 0.435 | 0.287 | 0.387 | 0.357 | 0.186 | 0.184 | 0.203 |
| NCI-H520 | – | – | – | – | – | 0.248 | 0.255 | 0.287 | 0.224 | 0.303 | 0.255 | 0.282 | 0.284 | 0.204 | 0.553 | 0.544 | 0.579 | 0.397 | 0.299 | 0.555 |
